Experimental data published in the CheMixHub drug solubility set.

Experiment: xn = mol fraction of the nth substance listed, in the solute-free solvent

Cc1ccc2cc(Br)ccc2n1 + CC(C)O + O
solubility (g/100 g solution) (278.15 K, x2 = 0.03225): 0.0479 | solubility (g/100 g solution) (278.15 K, x2 = 0.06974): 0.141 | solubility (g/100 g solution) (278.15 K, x2 = 0.1139): 0.263 | solubility (g/100 g solution) (278.15 K, x2 = 0.1666): 0.372 | solubility (g/100 g solution) (278.15 K, x2 = 0.2307): 0.427 | solubility (g/100 g solution) (278.15 K, x2 = 0.3103): 0.482 | solubility (g/100 g solution) (278.15 K, x2 = 0.4117): 0.539 | solubility (g/100 g solution) (278.15 K, x2 = 0.5454): 0.596 | solubility (g/100 g solution) (278.15 K, x2 = 0.7297): 0.657 | solubility (g/100 g solution) (283.15 K, x2 = 0.03225): 0.0553 | solubility (g/100 g solution) (283.15 K, x2 = 0.06974): 0.161 | solubility (g/100 g solution) (283.15 K, x2 = 0.1139): 0.301 | solubility (g/100 g solution) (283.15 K, x2 = 0.1666): 0.427 | solubility (g/100 g solution) (283.15 K, x2 = 0.2307): 0.503 | solubility (g/100 g solution) (283.15 K, x2 = 0.3103): 0.567 | solubility (g/100 g solution) (283.15 K, x2 = 0.4117): 0.642 | solubility (g/100 g solution) (283.15 K, x2 = 0.5454): 0.7 | solubility (g/100 g solution) (283.15 K, x2 = 0.7297): 0.815 | solubility (g/100 g solution) (288.15 K, x2 = 0.03225): 0.0644 | solubility (g/100 g solution) (288.15 K, x2 = 0.06974): 0.185 | solubility (g/100 g solution) (288.15 K, x2 = 0.1139): 0.346 | solubility (g/100 g solution) (288.15 K, x2 = 0.1666): 0.492 | solubility (g/100 g solution) (288.15 K, x2 = 0.2307): 0.586 | solubility (g/100 g solution) (288.15 K, x2 = 0.3103): 0.673 | solubility (g/100 g solution) (288.15 K, x2 = 0.4117): 0.767 | solubility (g/100 g solution) (288.15 K, x2 = 0.5454): 0.856 | solubility (g/100 g solution) (288.15 K, x2 = 0.7297): 0.972 | solubility (g/100 g solution) (293.15 K, x2 = 0.03225): 0.0741 | solubility (g/100 g solution) (293.15 K, x2 = 0.06974): 0.211 | solubility (g/100 g solution) (293.15 K, x2 = 0.1139): 0.393 | solubility (g/100 g solution) (293.15 K, x2 = 0.1666): 0.56 | solubility (g/100 g solution) (293.15 K, x2 = 0.2307): 0.671 | solubility (g/100 g solution) (293.15 K, x2 = 0.3103): 0.787 | solubility (g/100 g solution) (293.15 K, x2 = 0.4117): 0.896 | solubility (g/100 g solution) (293.15 K, x2 = 0.5454): 1.03 | solubility (g/100 g solution) (293.15 K, x2 = 0.7297): 1.16 | solubility (g/100 g solution) (298.15 K, x2 = 0.03225): 0.0853 | solubility (g/100 g solution) (298.15 K, x2 = 0.06974): 0.241 | solubility (g/100 g solution) (298.15 K, x2 = 0.1139): 0.446 | solubility (g/100 g solution) (298.15 K, x2 = 0.1666): 0.637 | solubility (g/100 g solution) (298.15 K, x2 = 0.2307): 0.769 | solubility (g/100 g solution) (298.15 K, x2 = 0.3103): 0.904 | solubility (g/100 g solution) (298.15 K, x2 = 0.4117): 1.04 | solubility (g/100 g solution) (298.15 K, x2 = 0.5454): 1.2 | solubility (g/100 g solution) (298.15 K, x2 = 0.7297): 1.33 | solubility (g/100 g solution) (303.15 K, x2 = 0.03225): 0.0974 | solubility (g/100 g solution) (303.15 K, x2 = 0.06974): 0.273 | solubility (g/100 g solution) (303.15 K, x2 = 0.1139): 0.505 | solubility (g/100 g solution) (303.15 K, x2 = 0.1666): 0.723 | solubility (g/100 g solution) (303.15 K, x2 = 0.2307): 0.881 | solubility (g/100 g solution) (303.15 K, x2 = 0.3103): 1.04 | solubility (g/100 g solution) (303.15 K, x2 = 0.4117): 1.2 | solubility (g/100 g solution) (303.15 K, x2 = 0.5454): 1.4 | solubility (g/100 g solution) (303.15 K, x2 = 0.7297): 1.56 | solubility (g/100 g solution) (308.15 K, x2 = 0.03225): 0.113 | solubility (g/100 g solution) (308.15 K, x2 = 0.06974): 0.312 | solubility (g/100 g solution) (308.15 K, x2 = 0.1139): 0.576 | solubility (g/100 g solution) (308.15 K, x2 = 0.1666): 0.826 | solubility (g/100 g solution) (308.15 K, x2 = 0.2307): 0.997 | solubility (g/100 g solution) (308.15 K, x2 = 0.3103): 1.19 | solubility (g/100 g solution) (308.15 K, x2 = 0.4117): 1.39 | solubility (g/100 g solution) (308.15 K, x2 = 0.5454): 1.63 | solubility (g/100 g solution) (308.15 K, x2 = 0.7297): 1.81 | solubility (g/100 g solution) (313.15 K, x2 = 0.03225): 0.129 | solubility (g/100 g solution) (313.15 K, x2 = 0.06974): 0.356 | solubility (g/100 g solution) (313.15 K, x2 = 0.1139): 0.655 | solubility (g/100 g solution) (313.15 K, x2 = 0.1666): 0.94 | solubility (g/100 g solution) (313.15 K, x2 = 0.2307): 1.15 | solubility (g/100 g solution) (313.15 K, x2 = 0.3103): 1.37 | solubility (g/100 g solution) (313.15 K, x2 = 0.4117): 1.59 | solubility (g/100 g solution) (313.15 K, x2 = 0.5454): 1.89 | solubility (g/100 g solution) (313.15 K, x2 = 0.7297): 2.1 | solubility (g/100 g solution) (318.15 K, x2 = 0.03225): 0.148 | solubility (g/100 g solution) (318.15 K, x2 = 0.06974): 0.403 | solubility (g/100 g solution) (318.15 K, x2 = 0.1139): 0.74 | solubility (g/100 g solution) (318.15 K, x2 = 0.1666): 1.06 | solubility (g/100 g solution) (318.15 K, x2 = 0.2307): 1.31 | solubility (g/100 g solution) (318.15 K, x2 = 0.3103): 1.57 | solubility (g/100 g solution) (318.15 K, x2 = 0.4117): 1.81 | solubility (g/100 g solution) (318.15 K, x2 = 0.5454): 2.17 | solubility (g/100 g solution) (318.15 K, x2 = 0.7297): 2.4 | solubility (g/100 g solution) (323.15 K, x2 = 0.03225): 0.169 | solubility (g/100 g solution) (323.15 K, x2 = 0.06974): 0.457 | solubility (g/100 g solution) (323.15 K, x2 = 0.1139): 0.837 | solubility (g/100 g solution) (323.15 K, x2 = 0.1666): 1.2 | solubility (g/100 g solution) (323.15 K, x2 = 0.2307): 1.5 | solubility (g/100 g solution) (323.15 K, x2 = 0.3103): 1.79 | solubility (g/100 g solution) (323.15 K, x2 = 0.4117): 2.06 | solubility (g/100 g solution) (323.15 K, x2 = 0.5454): 2.48 | solubility (g/100 g solution) (323.15 K, x2 = 0.7297): 2.78
